From ChEMBL document CHEMBL1201862, “PubChem BioAssay data set” (2004) come the findings set out here.

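Growth conditions: 96-well plates. Treatment: test compound, 48 hours, 5 concentrations. Analysis: linear interpolation between bracketing concentrations; unreached endpoints set to highest concentration. Abbreviation: GI50, concentration required for 50% inhibition of growth.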 Activity calls are given as the source filed them. No stated cut-off is given here; in the data, active = GI50 up to about 1.1 µM and inactive = higher. Bridge positions count the residues as written; N and C are the ends. Square brackets hold non-standard residues; d marks the D form. Peptide text beside a SMILES is read from it. I, II: the chains in the order shown. * marks the point of attachment. Quinoxaline2carbonyl = O=C(c1cnc2ccccc2n1)*; NMeV = CN[CH](C(=O)O)C(C)C; NMeC = CN[CH](CS)C(=O)O Where only a bound is given, the exact number is not on record here.

Test systems include SF-539; KM-20L2; CCRF-CEM; HL-60; SK-MEL-2; DMS-273; NCI-H23; OVCAR-8; DMS-114; MOLT-4; HCT-15; NCI-H226; A549; KM12; EKVX; BT-549; SK-OV-3; HOP-18; T47D; MDA-N.
Assay in all cases: inhibition of tumour cell growth, NCI panel, 48 h

On to `COc1ccc(C(=O)OCC2OC(n3cnc4c(=S)nc[nH]c43)C(OC(=O)c3ccc(OC)cc3)C2OC(=O)c2ccc(OC)cc2)cc1` (centres undefined), for which the GI50 in the assay with SF-539 was 20.5 µM (inactive); with KM-20L2, 8.47 µM (inactive); with CCRF-CEM, 8.47 µM (inactive); in the assay with HL-60, 26.2 µM (inactive); in the assay on SK-MEL-2 it was 12.8 µM (inactive); in the assay on DMS-273, 15 µM (inactive). Also, the GI50 in the assay with NCI-H23 was 39.7 µM (inactive); in the assay with OVCAR-8, 28.5 µM (inactive); with DMS-114, 5.65 µM (inactive); in the assay on MOLT-4, 22.5 µM (inactive); in the assay with HCT-15, 47.2 µM; in the assay with NCI-H226, 30.1 µM (inactive). Besides, the values for the GI50 with A549 and in the assay on KM12 were > 100 µM (inactive) and 45.6 µM (inactive), respectively.
As to `COc1ccc2c(c1)[n+]([O-])c(/C(C)=N/NC(N)=S)c(C)[n+]2[O-]`, the GI50 is 44 µM (inactive) with EKVX; > 59.8 µM (inactive) with SF-539; 39.4 µM (inactive) with KM-20L2; 27.6 µM (inactive) in the assay on CCRF-CEM; 1.5 µM (inactive) in the assay on HL-60; > 96.4 µM (inactive) in the assay with SK-MEL-2. Also, the GI50 in the assay on NCI-H23 was > 67.9 µM (inactive); in the assay on OVCAR-8, 46.3 µM (inactive); with BT-549 it was 90.4 µM (inactive); in the assay with DMS-114, 36 µM (inactive); in the assay on MOLT-4 it was 17.8 µM (inactive); in the assay with SK-OV-3 it was > 100 µM (inactive). Moreover, the GI50 was 95.1 µM (inactive) in the assay on HOP-18; 45.6 µM in the assay on HCT-15; > 61.7 µM (inactive) in the assay on NCI-H226; 49.2 µM (inactive) in the assay with T47D; 53.7 µM (inactive) in the assay with A549; 51.3 µM (inactive) with MDA-N. Also, in the assay with KM12, the GI50 is > 85.9 µM (inactive).
Turning to `Cc1ccc(SC(CCC(Sc2ccc(C)cc2)Sc2ccc(C)cc2)Sc2ccc(C)cc2)cc1`, the GI50 in the assay on EKVX, in the assay with SF-539, in the assay with KM-20L2, in the assay with CCRF-CEM, with HL-60 and in the assay with SK-MEL-2 was > 100 µM (inactive) throughout. Also, the GI50 in the assay on DMS-273, with NCI-H23, in the assay with OVCAR-8, with DMS-114, with MOLT-4 and with SK-OV-3 was > 100 µM (inactive) in each case. Moreover, the GI50 in the assay on HCT-15 was more than 100 µM; with A549 it was > 100 µM (inactive); in the assay on KM12 it was > 100 µM (inactive).
Regarding `N#CC1=C(N)n2c(s/c(=C\c3ccc(Cl)cc3)c2=O)=C(c2nc3ccccc3[nH]2)C1c1ccc(Cl)cc1` (centres undefined), the GI50 in the assay on EKVX was 1.88 µM (inactive); with SF-539 it was 1.98 µM (inactive); with KM-20L2, 2.21 µM (inactive); with CCRF-CEM, 1.71 µM (inactive); in the assay on HL-60 it was 2.04 µM (inactive); with SK-MEL-2 it was 2.14 µM (inactive). Also, the GI50 in the assay on DMS-273 is 2.12 µM (inactive); in the assay with NCI-H23, 0.426 µM (active); in the assay with OVCAR-8, 1.81 µM (inactive); in the assay on DMS-114, 1.99 µM (inactive); in the assay on MOLT-4, 1.47 µM (inactive); in the assay on HCT-15, 2.06 µM. Besides, the GI50 in the assay with NCI-H226 was 1.91 µM (inactive); in the assay with A549, 3.32 µM (inactive); in the assay with KM12, 1.42 µM (inactive).
On to `CCCNC(=O)Nc1c([N+](=O)[O-])cc(C(F)(F)F)cc1[N+](=O)[O-]`, for which the GI50 in the assay with EKVX was > 100 µM (inactive); with SF-539, 71.3 µM (inactive); in the assay on KM-20L2, 26.2 µM (inactive); in the assay with CCRF-CEM, > 100 µM (inactive); with HL-60, 24.5 µM (inactive); with SK-MEL-2, > 100 µM (inactive). Further, the GI50 with DMS-273 was > 100 µM (inactive); in the assay on NCI-H23, 43 µM (inactive); with OVCAR-8 it was 74.3 µM (inactive); with MOLT-4, > 100 µM (inactive); in the assay on SK-OV-3 it was > 100 µM (inactive); in the assay with HCT-15 it was 51.8 µM. Also, the GI50 with NCI-H226 was > 100 µM (inactive); in the assay with A549, 58.6 µM (inactive); in the assay with KM12 it was 55.5 µM (inactive).
On to `O=C1c2ccccc2C(=O)C1(O)c1c[nH]c2ccccc12`, for which the GI50 in the assay with EKVX, in the assay on SF-539, in the assay on KM-20L2, in the assay on CCRF-CEM, in the assay with HL-60 and with SK-MEL-2 was > 100 µM (inactive) each time. The GI50 in the assay on NCI-H23 was > 100 µM (inactive); with OVCAR-8, > 100 µM (inactive); with DMS-114 it was > 100 µM (inactive); in the assay with MOLT-4 it was > 100 µM (inactive); in the assay on SK-OV-3 it was > 100 µM (inactive); with HCT-15, more than 100 µM. Further, the GI50 in the assay with A549 and in the assay with KM12 was > 100 µM (inactive) each time.
As for `COc1cc2c(cc1OC)C(=O)Cc1ccc3c(c1CNCC2)OCO3`, the GI50 with EKVX, with SF-539, in the assay on KM-20L2, in the assay with CCRF-CEM, with SK-MEL-2 and in the assay on NCI-H23 was > 100 µM (inactive) in each case. The GI50 in the assay on OVCAR-8 was > 100 µM (inactive); in the assay on DMS-114, > 100 µM (inactive); in the assay on MOLT-4 it was > 100 µM (inactive); in the assay on SK-OV-3, > 100 µM (inactive); in the assay on HOP-18 it was > 100 µM (inactive); in the assay on HCT-15 it was more than 100 µM. For the same compound, the GI50 in the assay on A549 and in the assay with KM12 was > 100 µM (inactive) each time.
Regarding `CC1=C(C(=O)Nc2cccc(Cl)c2)C(c2ccccc2F)C(C(=O)Nc2cccc(Cl)c2)=C(C)N1`, the GI50 in the assay on EKVX was 6.22 µM (inactive); with SF-539 it was 13.9 µM (inactive); in the assay on KM-20L2, 7.46 µM (inactive); in the assay on CCRF-CEM, 4.61 µM (inactive); in the assay with HL-60 it was 3.78 µM (inactive); with SK-MEL-2, 11.6 µM (inactive). In addition, the GI50 in the assay with DMS-273 was 11.9 µM (inactive); with NCI-H23, 12.2 µM (inactive); in the assay with OVCAR-8, 17 µM (inactive); with DMS-114, 6.32 µM (inactive); in the assay with MOLT-4, 2.51 µM (inactive); with SK-OV-3, 21.5 µM (inactive). In addition, the GI50 was 11.3 µM (inactive) in the assay with NCI-H226, 7.78 µM (inactive) in the assay with A549 and 7.55 µM (inactive) in the assay with KM12.
Take `CCC1(O)C[C@H]2CN(CCCc3c([nH]c4ccccc34)[C@@](C(=O)OC)(c3cc4c(cc3OC)N(C)C3[C@](O)(C(=O)OC)[C@H](OC(C)=O)[C@]5(CC)C=CCN6CC[C@]43[C@H]65)C2)C1` (some centres undefined): the GI50 in the assay on EKVX is 1.63 µM (inactive); with SF-539, 0.991 µM (active); in the assay with KM-20L2 it was 0.298 µM (active); in the assay with CCRF-CEM, 0.453 µM (active); with HL-60, 0.621 µM (active); in the assay on SK-MEL-2, 0.63 µM (active). In addition, the GI50 in the assay with DMS-273 was 0.406 µM (active); in the assay with NCI-H23, 0.743 µM (active); in the assay on OVCAR-8, 2.96 µM (inactive); in the assay with MOLT-4, 0.586 µM (active); in the assay with SK-OV-3, 0.526 µM (active); in the assay with HOP-18, 0.146 µM (active). Besides, the GI50 with HCT-15 is 2.99 µM; in the assay on A549, 1.46 µM (inactive); with KM12, 0.578 µM (active).
As for `ClC1CCC2OOC1O2` (centres undefined), the GI50 was > 100 µM (inactive) in the assay on EKVX; > 100 µM (inactive) with SF-539; > 100 µM (inactive) with KM-20L2; 54 µM (inactive) with CCRF-CEM; 32.2 µM (inactive) in the assay on HL-60; > 100 µM (inactive) with SK-MEL-2. The GI50 in the assay with DMS-273 was > 100 µM (inactive); in the assay with NCI-H23, > 100 µM (inactive); in the assay on OVCAR-8, > 100 µM (inactive); in the assay with DMS-114 it was 43.7 µM (inactive); in the assay on MOLT-4, > 100 µM (inactive); in the assay with SK-OV-3, > 100 µM (inactive). Moreover, the GI50 with HCT-15 was 87.3 µM; with NCI-H226, > 100 µM (inactive); in the assay on A549, > 100 µM (inactive); in the assay with KM12 it was > 100 µM (inactive).
As for `CCC1CN2CCC3(c4ccccc4)CC(C(=O)OC)=CC1C23` (centres undefined), the GI50 was 13.5 µM (inactive) with EKVX; 16.8 µM (inactive) with SF-539; 16.3 µM (inactive) in the assay on KM-20L2; > 100 µM (inactive) in the assay with CCRF-CEM; 15.4 µM (inactive) with NCI-H23; 17.9 µM (inactive) in the assay with OVCAR-8. Further, the GI50 in the assay on MOLT-4 was 49.2 µM (inactive); in the assay with SK-OV-3, 13.3 µM (inactive); in the assay on HOP-18 it was 14.9 µM (inactive); with HCT-15, 17.6 µM; in the assay with NCI-H226 it was 17 µM (inactive); with A549 it was 17.3 µM (inactive). For the same compound, in the assay with KM12, the GI50 is 15 µM (inactive).
Consider `COc1ccc(-c2ccc(CC(=O)O)cc2)cc1OC`, for which the GI50 with EKVX, in the assay on KM-20L2, in the assay with CCRF-CEM, in the assay on HL-60, in the assay with SK-MEL-2 and in the assay on NCI-H23 was > 100 µM (inactive) throughout. The GI50 with OVCAR-8, with DMS-114, with MOLT-4, in the assay on SK-OV-3, in the assay on NCI-H226 and in the assay on A549 was > 100 µM (inactive) each time. The GI50 with KM12 is > 100 µM (inactive).
For `CC1NC(=O)C(NC(=O)c2cnc3ccccc3n2)COC(=O)C(C(C)C)N(C)C(=O)C2CSSCC(C(=O)N(C)C(C(C)C)C(=O)OCC(NC(=O)c3cnc4ccccc4n3)C(=O)NC(C)C(=O)N2C)N(C)C1=O` (centres undefined) (I: Quinoxaline2carbonyl-SA[NMeC][NMeV] / II: Quinoxaline2carbonyl-SA[NMeC][NMeV]; ester I:1-II:C, I:C-II:1; disulfide I:3-II:3; configuration not given here), the GI50 in the assay with EKVX, in the assay on SF-539, with CCRF-CEM, in the assay with HL-60, in the assay with SK-MEL-2 and in the assay with NCI-H23 was < 0.01 µM (active) throughout. For the same compound, the GI50 was < 0.01 µM (active) in the assay with OVCAR-8; < 0.01 µM (active) in the assay on BT-549; < 0.01 µM (active) with MOLT-4; < 0.01 µM (active) in the assay with SK-OV-3; less than 0.01 µM in the assay with HCT-15; < 0.01 µM (active) in the assay on NCI-H226. Moreover, the GI50 in the assay on T47D, with A549, in the assay on MDA-N and in the assay with KM12 was < 0.01 µM (active) in each case.
